This note sets out measurements from ChEMBL document CHEMBL3352427, “Rational design of the first difluorostatone-based PfSUB1 inhibitors” (Bioorg Med Chem Lett, 2014).

Test [1] concerns the target T1, Subtilisin-like protease 1 (Plasmodium falciparum) (UniProt O61142).
T1 sequence (whole entry): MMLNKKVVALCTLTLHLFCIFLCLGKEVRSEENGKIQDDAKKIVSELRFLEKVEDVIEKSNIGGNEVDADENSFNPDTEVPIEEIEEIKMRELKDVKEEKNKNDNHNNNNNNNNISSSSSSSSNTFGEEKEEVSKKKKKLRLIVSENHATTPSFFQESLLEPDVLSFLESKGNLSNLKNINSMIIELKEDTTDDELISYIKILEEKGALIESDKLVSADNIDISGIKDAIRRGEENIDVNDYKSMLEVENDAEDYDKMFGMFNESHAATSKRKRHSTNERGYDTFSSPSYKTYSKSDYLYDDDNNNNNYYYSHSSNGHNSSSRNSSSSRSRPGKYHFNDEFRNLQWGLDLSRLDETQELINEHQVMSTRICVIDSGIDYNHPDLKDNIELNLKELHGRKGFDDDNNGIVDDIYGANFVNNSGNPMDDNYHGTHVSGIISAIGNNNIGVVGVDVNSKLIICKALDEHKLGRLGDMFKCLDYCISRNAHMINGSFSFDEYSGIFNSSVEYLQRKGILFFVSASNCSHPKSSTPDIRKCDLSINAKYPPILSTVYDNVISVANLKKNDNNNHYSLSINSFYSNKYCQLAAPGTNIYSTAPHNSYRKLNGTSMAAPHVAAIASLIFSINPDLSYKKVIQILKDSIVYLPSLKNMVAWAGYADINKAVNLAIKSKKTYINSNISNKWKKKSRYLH
Briefly: Inhibition of Plasmodium falciparum serine protease subtilisin-like protease 1 at 100 uM by fluorimetric assay.

For test [2], the target named is T2, Subtilisin-like protease 1 (Plasmodium falciparum, UniProt O61142).
T2 sequence (O61142 whole entry): T1 sequence (whole entry)
Put plainly: Inhibition of Plasmodium falciparum serine protease subtilisin-like protease 1by fluorimetric assay.

Starred links: 1 amine or outer side, 2 acyl side, 3 side chain; linkers in the order of their positions; H or OH if unused. Non-standard residues stand in square brackets, D forms with d. Residues, ends and D or L forms follow the SMILES beside them. *: point of attachment. X1 = C[C@H](N[*:1])C(=O)C(F)(F)C(=O)[*:2]; X2 = C[C@H](N[*:1])C(O)C(F)(F)C(=O)[*:2]; Cbz = O=C(OCc1ccccc1)*; OBn = c1ccc(CO*)cc1; Bn = c1ccc(C*)cc1; βAla = NCCC(=O)O

In test [1], `CC(=O)N[C@H](C(=O)N[C@@H](C)C(=O)N[C@@H](C)C(=O)C(F)(F)C(=O)NCC(=O)O)[C@@H](C)O` had an inhibition of 6%.
On to `CC[C@H](C)[C@H](NC(C)=O)C(=O)N[C@H](C(=O)N[C@@H](C)C(=O)N[C@@H](C)C(=O)C(F)(F)C(=O)NCC(=O)OCc1ccccc1)[C@@H](C)OCc1ccccc1` (Ac-IT(Bn)A[X1]G-OBn), for which, in test [2], the half-inhibitory concentration (IC50) came out at 33 µM. In test [1], this compound registered an inhibition of 59%.
In the same order, the values of `CC[C@H](C)[C@H](NC(=O)[C@H](CCCCNC(=O)OCc1ccccc1)NC(C)=O)C(=O)N[C@H](C(=O)N[C@@H](C)C(=O)N[C@@H](C)C(=O)C(F)(F)C(=O)NCC(=O)OCc1ccccc1)[C@@H](C)OCc1ccccc1` (Ac-K(Cbz)IT(Bn)A[X1]G-OBn) are 5 µM and 71%.
Turning to `CC[C@H](C)[C@H](NC(=O)[C@H](CCCCNC(=O)OCc1ccccc1)NC(C)=O)C(=O)N[C@H](C(=O)N[C@@H](C)C(=O)N[C@@H](C)C(=O)C(F)(F)C(=O)NCCC(=O)OCc1ccccc1)[C@@H](C)OCc1ccccc1` (Ac-K(Cbz)IT(Bn)A[X1][βAla]-OBn), the inhibition in test [1] amounted to 14%.
Turning to `CC[C@H](C)[C@H](NC(=O)[C@H](CCCCNC(=O)OCc1ccccc1)NC(C)=O)C(=O)N[C@H](C(=O)N[C@@H](C)C(=O)N[C@@H](C)C(O)C(F)(F)C(=O)NCC(=O)OCc1ccccc1)[C@@H](C)OCc1ccccc1` (some centres undefined) (Ac-K(Cbz)IT(Bn)A[X2]G-OBn), the inhibition in test [1] amounted to 3%.
For `CC[C@H](C)[C@H](NC(C)=O)C(=O)N[C@H](C(=O)N[C@@H](C)C(=O)N[C@@H](C)C(=O)C(F)(F)C(=O)NCC(=O)O)[C@@H](C)O` (HELM PEPTIDE1{[ac].I.T.A.[C[C@H](N[*:1])C(=O)C(F)(F)C(=O)[*:2]].G}$$$$V2.0), in test [2], it took 0.6 µM to reach half-maximal inhibition (IC50). In addition, the inhibition in test [1] worked out at 99%.
Taken in the same sequence, the figures for `CC[C@H](C)[C@H](NC(=O)[C@H](CCCCN)NC(C)=O)C(=O)N[C@H](C(=O)N[C@@H](C)C(=O)N[C@@H](C)C(=O)C(F)(F)C(=O)NCC(=O)O)[C@@H](C)O` (HELM PEPTIDE1{[ac].K.I.T.A.[C[C@H](N[*:1])C(=O)C(F)(F)C(=O)[*:2]].G}$$$$V2.0) were 0.6 µM and 100%.
In the same order, the values of `CC[C@H](C)[C@H](NC(=O)[C@H](CCCCN)NC(C)=O)C(=O)N[C@H](C(=O)N[C@@H](C)C(=O)N[C@@H](C)C(=O)C(F)(F)C(=O)NCCC(=O)O)[C@@H](C)O` (HELM PEPTIDE1{[ac].K.I.T.A.[C[C@H](N[*:1])C(=O)C(F)(F)C(=O)[*:2]].[bAla]}$$$$V2.0) are 60 µM and 63%.
`CC[C@H](C)[C@H](NC(C)=O)C(=O)N[C@H](C(=O)N[C@@H](C)C(=O)N[C@@H](C)C(O)C(F)(F)C(=O)NCC(=O)OCc1ccccc1)[C@@H](C)OCc1ccccc1` (mixture of isomers): the inhibition in test [1] is 0%.
